Measurements taken from patent US5116834A, “Quinolinecarboxylic acid antibacterial agents” (Warner-Lambert Company, priority 1991, dated 1992).
≈ marks a conversion by molar mass, not a printed value.

Tests used:
Experiment in all cases: In vitro antibacterial activity, microtitration dilution method (MIC)
Type in all cases: cell-based
[1] = test system: Streptococcus pyogenes C-203; conditions: C203, read-out: Minimal Inhibitory Concentration (MIC)
Excerpt: (§1) The compounds of the invention display anti-bacterial activity when tested by the microtitration dilution method as described in Heifetz, et al, Antimicr. Agents & Chemoth., 6, 124 (1974), which is incorporated herein by reference.
(§2) By use of the above reference method, the following minimum inhibitory concentration value (MICs in μg/mL) shown in Table I were obtained for representative compounds of the invention.

[2] = test system: Streptococcus faecalis MGH-2; conditions: Enterococcus faecalis, MGH2, read-out: Minimal Inhibitory Concentration (MIC)
Excerpt: as §1, §2

[3] = test system: Staphylococcus aureus UC-76; conditions: UC76, read-out: Minimal Inhibitory Concentration (MIC)
Excerpt: as §1, §2

[4] = test system: Pseudomonas aeroginosa UI-18; conditions: UI18, read-out: Minimal Inhibitory Concentration (MIC)
Excerpt: as §1, §2

Escherichia coli Vogel = conditions: read-out: Minimal Inhibitory Concentration (MIC)
Excerpt: as §1, §2

[5] = test system: Enterobacter cloacae MA 2646; conditions: MA2646, read-out: Minimal Inhibitory Concentration (MIC)
Excerpt: as §1, §2

Proteus rettgeri M 1771 = conditions: Providencia rettgeri, M1771, read-out: Minimal Inhibitory Concentration (MIC)
Excerpt: as §1, §2

Escherichia coli H56 = conditions: read-out: Minimal Inhibitory Concentration (MIC)
Excerpt: as §1, §2

[6] = test system: Staphylococcus aureus H228; conditions: read-out: Minimal Inhibitory Concentration (MIC)
Excerpt: (§3) The compounds of the invention display anti-bacterial activity when tested by the microtitration dilution method as described in Heifetz, et al, […]. Agents & Chemoth., 6, 124 (1974), which is incorporated herein by reference. By use of the above reference method, the following minimum inhibitory concentration value (MICs in μg/mL) shown in Table I were obtained for representative compounds of the invention.

[7] = test system: Klebsiella pneumoniae MGH-2; conditions: MGH2, read-out: Minimal Inhibitory Concentration (MIC)
Excerpt: as §3

[8] = test system: Streptococcus pneumoniae SV-1; conditions: SV1, read-out: Minimal Inhibitory Concentration (MIC)
Excerpt: as §3

Row | Compound | MIC [1] [µg/mL] | MIC [2] [µg/mL] | MIC [3] [µg/mL] | MIC [4] [µg/mL] | MIC (Escherichia coli Vogel) [µg/mL] | MIC [5] [µg/mL] | MIC (Proteus rettgeri M 1771) [µg/mL] | MIC (Escherichia coli H56) [µg/mL] | MIC [6] [µg/mL] | MIC [7] [µg/mL] | MIC [8] [µg/mL]
1 | C=Cc1c(N2CCNC(C)C2)c(F)cc2c(=O)c(C(=O)O)cn(C3CC3)c12 (stereo not drawn) [Ex. 1, 1-Cyclopropyl-8-ethenyl-6-fluoro-1,4-dihydro-7-(3-methyl-1-piperazinyl)-4-oxo-3-quinolinecarboxylicacid] | 0.2 (≈ 0.538 µM) | 0.4 (≈ 1.08 µM) | 0.1 (≈ 0.269 µM) | 1.6 (≈ 4.31 µM) | 0.1 (≈ 0.269 µM) | 0.1 (≈ 0.269 µM) | 0.4 (≈ 1.08 µM) | 0.05 (≈ 0.135 µM) | 0.2 (≈ 0.538 µM) | 0.2 (≈ 0.538 µM) | 0.2 (≈ 0.538 µM)
2 | C=Cc1c(N2CCNCC2)c(F)cc2c(=O)c(C(=O)O)cn(C3CC3)c12 [Ex. 2, 1-Cyclopropyl-8-ethenyl-6-fluoro-1,4-dihydro-4-oxo-7-(1-piperazinyl)-3-quinolinecarboxylic acid] | 0.4 (≈ 1.12 µM) | 0.4 (≈ 1.12 µM) | 0.1 (≈ 0.28 µM) | 1.6 (≈ 4.48 µM) | 0.1 (≈ 0.28 µM) | 0.1 (≈ 0.28 µM) | 0.4 (≈ 1.12 µM) | 0.05 (≈ 0.14 µM) | 0.4 (≈ 1.12 µM) | 0.2 (≈ 0.56 µM) | 0.4 (≈ 1.12 µM)
3 | C=Cc1c(N2CC[C@@H](CNCC)C2)c(F)cc2c(=O)c(C(=O)O)cn(C3CC3)c12 [Ex. 3, 1-Cyclopropyl-8-ethenyl-7-[3(S)-(ethylamino)methyl-1-pyrrolidine]-6-fluoro-1,4-dihydro-4-oxo-3-quinolinecarboxylic acid] | 0.013 (≈ 0.0325 µM) | 0.013 (≈ 0.0325 µM) | 0.003 (≈ 0.00751 µM) | 3.1 (≈ 7.76 µM) | 0.1 (≈ 0.25 µM) | 0.2 (≈ 0.501 µM) | 0.4 (≈ 1 µM) | 0.1 (≈ 0.25 µM) | 0.006 (≈ 0.015 µM) | 0.4 (≈ 1 µM) | 0.003 (≈ 0.00751 µM)
